Assay results: patent US10253027B2, “Aryl lactam kinase inhibitors” (Bristol-Myers Squibb Company, priority 2013, dated 2019)

biological target: T1, GST-Xa-hAAK1 (Homo sapiens, UniProt Q2M2I8); experiment: AAK1 Kinase Assay; format: biochemical; conditions: IC50 (nM), ATP 22 μM; 3 hours at room temperature; Caliper LabChip 3000
T1 construct: made in house
Method: The assays were performed in U-bottom 384-well plates. […] The reactions were initiated by the combination of bacterially expressed, GST-Xa-hAAK1 with substrates and test compounds. The reactions were incubated at room temperature for 3 hours and terminated by adding 60 μl of 35 mM EDTA buffer to each sample. The reactions were analyzed on the Caliper LabChip 3000 (Caliper, Hopkinton, Mass.) by electrophoretic separation of the fluorescent substrate and phosphorylated product. […] Compounds were dissolved at 10 mM in dimethylsulfoxide (DMSO) and evaluated at eleven concentrations. IC50 values were derived by non-linear regression analysis.

T1 sequence (Q2M2I8 whole entry): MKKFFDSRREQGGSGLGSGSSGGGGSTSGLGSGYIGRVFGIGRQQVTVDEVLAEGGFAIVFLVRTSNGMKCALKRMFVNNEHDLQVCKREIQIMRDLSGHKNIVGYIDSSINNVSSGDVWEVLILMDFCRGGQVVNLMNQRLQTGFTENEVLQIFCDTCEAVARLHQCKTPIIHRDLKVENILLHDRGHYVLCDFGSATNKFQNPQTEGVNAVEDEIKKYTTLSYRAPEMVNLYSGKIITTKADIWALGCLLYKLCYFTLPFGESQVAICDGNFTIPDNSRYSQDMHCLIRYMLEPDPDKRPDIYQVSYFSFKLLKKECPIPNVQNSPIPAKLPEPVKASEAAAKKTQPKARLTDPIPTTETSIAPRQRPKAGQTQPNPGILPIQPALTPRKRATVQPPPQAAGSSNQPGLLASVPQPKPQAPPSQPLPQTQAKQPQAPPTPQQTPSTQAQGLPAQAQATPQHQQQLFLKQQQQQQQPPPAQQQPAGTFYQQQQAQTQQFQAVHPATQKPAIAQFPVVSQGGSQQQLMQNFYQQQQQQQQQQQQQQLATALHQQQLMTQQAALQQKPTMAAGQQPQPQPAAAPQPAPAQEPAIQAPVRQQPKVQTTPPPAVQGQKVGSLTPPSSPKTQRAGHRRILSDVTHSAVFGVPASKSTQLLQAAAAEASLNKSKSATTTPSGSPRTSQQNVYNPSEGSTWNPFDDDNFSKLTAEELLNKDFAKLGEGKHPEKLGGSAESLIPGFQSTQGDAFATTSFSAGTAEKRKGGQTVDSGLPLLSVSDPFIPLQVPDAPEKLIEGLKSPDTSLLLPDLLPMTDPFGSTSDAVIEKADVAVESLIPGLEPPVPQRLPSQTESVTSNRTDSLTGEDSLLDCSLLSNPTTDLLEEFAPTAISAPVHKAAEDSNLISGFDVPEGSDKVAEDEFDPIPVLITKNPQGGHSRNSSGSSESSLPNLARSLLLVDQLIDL

| IC50 [nM] | SMILES |
| --- | --- |
| 530 | CCCC[C@@H](N)C(=O)Nc1ccc(-c2cnco2)c(OC)c1 [Example 52, (R)-2-Amino-N-(3-methoxy-4-(oxazol-5-yl)phenyl)hexanamide] |
| 270 | CCCC[C@H](N)C(=O)Nc1ccc(-c2cnco2)c(OC)c1 [Example 53, (S)-2-Amino-N-(3-methoxy-4-(oxazol-5-yl)phenyl)hexanamide] |
| 720 | COc1cc(NC(=O)[C@H](N)CCSC)ccc1-c1cnco1 [Example 54, (R)-2-Amino-N-(3-methoxy-4-(oxazol-5-yl)phenyl)-4-(methylthio)butanamide] |
| 130 | CC[C@@H](C)[C@@H](N)C(=O)Nc1ccc(-c2cnco2)c(OC)c1 [Example 55, (2R,3R)-2-Amino-N-(3-methoxy-4-(oxazol-5-yl)phenyl)-3-methylpentanamide] |
| 950 | COc1cc(NC(=O)[C@H](N)CC2CCCCC2)ccc1-c1cnco1 [Example 56, (R)-2-Amino-3-cyclohexyl-N-(3-methoxy-4-(oxazol-5-yl)phenyl)propanamide] |
| 780 | COc1cc(NC(=O)C2CNC(=O)N2)ccc1-c1cnco1 (stereo not drawn) [Example 57, N-(3-Methoxy-4-(oxazol-5-yl)phenyl)-2-oxoimidazolidine-4-carboxamide] |
| 4400 | CNC1(C(=O)Nc2ccc(-c3cnco3)c(OC)c2)CC1 [Example 58, N-(3-Methoxy-4-(oxazol-5-yl)phenyl)-1-(methylamino)cyclopropanecarboxamide] |
| 2400 | COc1cc(NC(=O)CN2CCCC2=O)ccc1-c1cnco1 [Example 59, N-(3-Methoxy-4-(oxazol-5-yl)phenyl)-2-(2-oxopyrrolidin-1-yl)acetamide] |
| 210 | COc1cc(NC(=O)[C@@H](CC(C)C)NCc2ccc(Cl)cc2)ccc1-c1cnco1 [Example 60, (R)-2-((4-Chlorobenzyl)amino)-N-(3-methoxy-4-(oxazol-5-yl)phenyl)-4-methylpentanamide] |
| 72 | COc1cc(NC(=O)[C@@H](CC(C)C)NCc2cccn2C)ccc1-c1cnco1 [Example 61, (R)—N-(3-Methoxy-4-(oxazol-5-yl)phenyl)-4-methyl-2-(((1-methyl-1H-pyrrol-2-yl)methyl)amino)pentanamide] |
| 220 | COc1cc(NC(=O)[C@@H](CC(C)C)NCc2ccccc2O)ccc1-c1cnco1 [Example 62] |
| 540 | COc1cc(NC(=O)[C@@H](CC(C)C)NCc2ccc(C)cc2)ccc1-c1cnco1 [Example 63, (R)—N-(3-Methoxy-4-(oxazol-5-yl)phenyl)-4-methyl-2-((4-methylbenzyl)amino)pentanamide] |
| 150 | COc1cc(NC(=O)[C@@H](CC(C)C)NCc2cnn(C)c2)ccc1-c1cnco1 [Example 64, (R)—N-(3-Methoxy-4-(oxazol-5-yl)phenyl)-4-methyl-2-(((1-methyl-1H-pyrazol-4-yl)methyl)amino)pentanamide] |
| 370 | COc1cc(NC(=O)[C@@H](CC(C)C)NCc2ccsc2)ccc1-c1cnco1 [Example 65, (R)—N-(3-Methoxy-4-(oxazol-5-yl)phenyl)-4-methyl-2-((thiophen-3-ylmethyl)amino)pentanamide] |
| 110 | COc1cc(NC(=O)[C@@H](CC(C)C)NCc2sccc2C)ccc1-c1cnco1 [Example 66, (R)—N-(3-Methoxy-4-(oxazol-5-yl)phenyl)-4-methyl-2-(((3-methylthiophen-2-yl)methyl)amino)pentanamide] |
| 260 | COc1cc(NC(=O)[C@@H](CC(C)C)NCc2csnn2)ccc1-c1cnco1 [Example 67, (R)-2-(((1,2,3-Thiadiazol-4-yl)methyl)amino)-N-(3-methoxy-4-(oxazol-5-yl)phenyl)-4-methylpentanamide] |
| 67 | COc1cc(NC(=O)[C@@H](CC(C)C)NS(C)(=O)=O)ccc1-c1cnco1 [Example 68, (R)—N-(3-Methoxy-4-(oxazol-5-yl)phenyl)-4-methyl-2-(methylsulfonamido)pentanamide] |
| 280 | CCS(=O)(=O)N[C@H](CC(C)C)C(=O)Nc1ccc(-c2cnco2)c(OC)c1 [Example 69, (R)-2-(Ethylsulfonamido)-N-(3-methoxy-4-(oxazol-5-yl)phenyl)-4-methylpentanamide] |
| 310 | CCCS(=O)(=O)N[C@H](CC(C)C)C(=O)Nc1ccc(-c2cnco2)c(OC)c1 [Example 70, (R)—N-(3-Methoxy-4-(oxazol-5-yl)phenyl)-4-methyl-2-(propylsulfonamido)pentanamide] |
| 400 | COc1cc(NC(=O)[C@@H](CC(C)C)NS(=O)(=O)c2ccccc2)ccc1-c1cnco1 [Example 71, (R)—N-(3-methoxy-4-(oxazol-5-yl)phenyl)-4-methyl-2-(phenylsulfonamido)pentanamide] |
| 1300 | COc1cc(NC(=O)[C@@H](CC(C)C)NS(=O)(=O)Cc2ccccc2)ccc1-c1cnco1 [Example 72, (R)—N-(3-Methoxy-4-(oxazol-5-yl)phenyl)-4-methyl-2-(phenylmethylsulfonamido)pentanamide] |
| 1500 | COc1cc(NC(=O)[C@@H]2CCCCN2)ccc1-c1cnco1 [Example 73, (S)—N-(3-Methoxy-4-(oxazol-5-yl)phenyl)piperidine-2-carboxamide] |
| 680 | COc1cc(NC(=O)[C@H](N)CC(C)(C)C)ccc1-c1cnco1 [Example 74, (R)-2-Amino-N-(3-methoxy-4-(oxazol-5-yl)phenyl)-4,4-dimethylpentanamide] |
| 5100 | COc1cc(NC(=O)[C@H](N)CO)ccc1-c1cnco1 [Example 75, (R)-2-Amino-3-hydroxy-N-(3-methoxy-4-(oxazol-5-yl)phenyl)propanamide] |
| 110 | COc1cc(NC(=O)C(N)CCC(F)(F)F)ccc1-c1cnco1 (stereo not drawn) [Example 76, 2-Amino-5,5,5-trifluoro-N-(3-methoxy-4-(oxazol-5-yl)phenyl)pentanamide] |

Further lines, the compound ahead of its results:

| SMILES | IC50 [nM] |
| --- | --- |
| COc1cc(NC(=O)C(CC(C)C)N[C@H]2CC[C@H](N)CC2)ccc1-c1cnco1 (stereo partly drawn) [Example 31, 2-(trans-4-Aminocyclohexylamino)-N-(3-methoxy-4-(oxazol-5-yl)phenyl)-4-methylpentanamide] | 7320 |
| COc1cc(NC(=O)C(CC(C)C)NC2CNC2)ccc1-c1cnco1 (stereo not drawn) [Example 32, 2-(Azetidin-3-ylamino)-N-(3-methoxy-4-(oxazol-5-yl)phenyl)-4-methylpentanamide] | 1140 |
| COc1cc(NC(=O)C(CC(C)C)N2CCC(N)CC2)ccc1-c1cnco1 (stereo not drawn) [Example 33, 2-(4-Aminopiperidin-1-yl)-N-(3-methoxy-4-(oxazol-5-yl)phenyl)-4-methylpentanamide] | 2100 |
| COc1cc(NC(=O)[C@H](O)CC(C)C)ccc1-c1cnco1 [Example 34, (R)-2-Hydroxy-N-(3-methoxy-4-(oxazol-5-yl)phenyl)-4-methylpentanamide] | 202 |
| COc1cc(NC(=O)C(CN)CC(C)C)ccc1-c1cnco1 (stereo not drawn) [Example 35, 2-(Aminomethyl)-N-(3-methoxy-4-(oxazol-5-yl)phenyl)-4-methylpentanamide] | 83 |
| CC(C)C[C@@H](N)C(=O)Nc1ccc(-c2cnco2)c(F)c1 [Example 40, (R)-2-Amino-N-(3-fluoro-4-(oxazol-5-yl)phenyl)-4-methylpentanamide] | 460 |
| CC(C)C[C@@H](N)C(=O)Nc1ccc(-c2cn[nH]c2)c(OC(F)F)c1 [Example 41, 2-Amino-N-(3-(difluoromethoxy)-4-(1H-pyrazol-4-yl)phenyl)-4-methylpentanamide] | 45 |
| CC(C)C[C@@H](N)C(=O)Nc1ccc(-c2cnco2)c(N(C)C)c1 [Example 42, 2-Amino-N-(3-(dimethylamino)-4-(oxazol-5-yl)phenyl)-4-methylpentanamide] | 860 |
| COc1cc(NC(=O)[C@H](N)CC(C)C)ccc1-c1ccnc(Cl)c1 [Example 43, (R)-2-Amino-N-(4-(2-chloropyridin-4-yl)-3-methoxyphenyl)-4-methylpentanamide] | 260 |
| COc1cnccc1-c1ccc(NC(=O)[C@H](N)CC(C)C)cc1 [Example 44, (R)-2-Amino-N-(4-(3-methoxypyridin-4-yl)phenyl)-4-methylpentanamide] | 140 |
| COc1cc(NC(=O)C(N)CC(C)C)ccc1-c1ccnc(N)c1 (stereo not drawn) [Example 45, 2-Amino-N-(4-(2-aminopyridin-4-yl)-3-methoxyphenyl)-4-methylpentanamide] | 150 |
| COc1cc(NC(=O)[C@H](N)CC(C)C)ccc1-c1cnc2cccnn12 [Example 46, (R)-2-amino-N-(4-(imidazo[1,2-b]pyridazin-3-yl)-3-methoxyphenyl)-4-methylpentanamide] | 2200 |
| COc1cc(NC(=O)[C@H](N)CC(C)C)ccc1-c1cnc2ccc(Cl)nn12 [Example 47, (R)-2-Amino-N-(4-(6-chloroimidazo[1,2-b]pyridazin-3-yl)-3-methoxyphenyl)-4-methylpentanamide] | 440 |
| CNc1cc(-c2ccc(NC(=O)C(N)CC(C)C)cc2OC)ccn1 (stereo not drawn) [Example 48, 2-Amino-N-(3-methoxy-4-(2-(methylamino)pyridin-4-yl)phenyl)-4-methylpentanamide] | 450 |
| CNc1ccc2ncc(-c3ccc(NC(=O)[C@H](N)CC(C)C)cc3OC)n2n1 [Example 49, (R)-2-Amino-N-(3-(methoxy)-4-(6-(methylamino)imidazo[1,2-b]pyridazin-3-yl)phenyl)-4-methylpentanamide] | 90 |
| CC[C@@H](N)C(=O)Nc1ccc(-c2cnco2)c(OC)c1 [Example 50, (R)-2-Amino-N-(3-methoxy-4-(oxazol-5-yl)phenyl)butanamide] | 340 |
| CCC[C@H](N)C(=O)Nc1ccc(-c2cnco2)c(OC)c1 [Example 51, (S)-2-Amino-N-(3-methoxy-4-(oxazol-5-yl)phenyl)pentanamide] | 590 |
